{
  "source": "patent US7414068B2",
  "about": "“Benzopyran derivatives substituted with secondary amines including tetrazole, method for the preparation thereof and pharmaceutical compositions containing them” (Dongbu Hannong Chemical Co., Ltd., priority 2002, dated 2008)",
  "key": {"[1]": {"tested_on": "isolated rat aorta", "assay": "Vasodilating effect on blood vessel excised from rats (methoxamine-constricted aorta)", "details": "isolated rat aorta constricted with methoxamine (3 μM); read-out: Concentration for inhibition of constriction induced by methoxamine in rat arota (IC50)", "procedure,_shortened": "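Endothelium-denuded rat thoracic aortic rings (3 mm) in Krebs-Henseleit buffer, 37 °C, carbogen, 2 g resting tension, primed twice with 10^−5 M phenylephrine. After maximal contraction with 3×10^−6 M methoxamine, compounds added cumulatively at 1, 3, 10, 30 μM. IC50 = concentration giving 50% relaxation of maximal constriction, by linear regression.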"}, "[2]": {"tested_on": "cortical neuron cells", "assay": "Protective effect on iron-induced neuronal cell injury (LDH release)", "format": "cell-based", "details": "FeSO4 50 μM; for IC50: LDH", "procedure,_shortened": "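Embryonic (day 17–18) cortical neurons cultured 7–9 days, serum lowered to 0.2%, pretreated 30 min with compound (DMSO ≤0.1%), then exposed to 50 μM FeSO4 for 24 h. LDH released to medium measured; protection expressed as LDH reduction versus vehicle control.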"}, "[3]": {"tested_on": "Sprague-Dawley Rat", "details": "30 mg/kg; for Infarction volume Medium(%): four times to abdominal cavity, 24 hours after operation", "description": "Male rat (Sprague-Dawley Rat, 350±50 g, Samyook) was anesthetized by administration of Pentobarbital sodium 40 mg/Kg. PE-19 tubing was inserted to the femoral vein and the artery, left carotid artery was exposed. Before the operation, heparin sulfate 20 μg was injected to the peritoneal cavity. Blood pressure measuring device was inserted to the femoral artery for the continuous measurement of arterial pressure. Blood (10 ml) was collected from the femoral vein to decrease blood pressure to 30 mmHg. If blood pressure is not decreased to 100 mmHg by collection of blood (7 ml), it is evaluated that sympathetic tone is very high.\nWith blood pressure maintaining to be 30 mmHg, left carotid artery was closed by aneurysm clamp for 20 min to induce ischemia. Reperfusion was accomplished by the collected blood and 0.84% bicarbonate saline (5 ml). Body temperature of rats was constantly maintained to be 37±0.5° C., by using thermal blanket and incandescent light bulbs during the ischemia. After the operation, in recovering period, body temperature was constantly maintained for more than 2 hours. If rats were recovered entirely, they were transferred to animal laboratory. Condition of animal laboratory, such as temperature, humidity and light cycle was constantly maintained to be 27° C., 60% and […], respectively.\nAfter 24 hours from the operation, rats were sacrificed. Then brain was enucleated from rat within 3 min. Enucleated brain was excised on the ice at the interval 2 mm by using brain matrix to produce six coronal sections. The said coronal sections were dyed in 2% 2,3,5-triphenyltetrazolium chloride solution at 37° C. for 30 min. The said dyed coronal section was developed and printed. Thereafter, the ratio of necrosis area to brain area was measured by using Image Analyzer.\nOtherwise, test compounds were four times administrated to abdominal cavity at a dose 30 mg/kg. […]\nThe protective effect on brain damage induced by brain ischemia-reperfusion was evaluated by calculating reduction of necrosis area to that of brain for a control group."}, "[4]": {"tested_on": "RAW 264.7 cells", "assay": "Inhibitory effect on NO production (LPS, Griess reagent)", "format": "cell-based, murine", "details": "Mus musculus, RAW264.7, 24 h, Addition 30 μM, LPS 1 μg/ml, read-out: Inihibition (%) of NO production", "description": "Using RPMI1640 media supplemented with 10% fetal bovine serum (FBS), RAW 264.7 cells (obtained from American Type Culture Collection), a murine macrophage cell line, were cultured at 37° C. in a 5% CO2 incubator. The RAW 264.7 cells were harvested and cell density was adjusted to 5×10^5 cell/ml with a RPMI media supplemented with 0.5% FBS and plated at 5×10^4 cell/well to 96-well plate, which were then cultured for 20 hours in a CO2 incubator. After removal of the media, the cells were pre-treated for 1 hour with fresh media containing 30 μM. The test compounds were dissolved in DMSO and diluted to respective concentration in the media. In order to minimize DMSO effect on the nitric oxide formation by the RAW 264.7 cells in the walls, the media were allowed to contain DMSO at a concentration of 0.1% or less.\nAfter completion of one-hour pre-treatment, Lipopolysaccharide (E. coli serotype 055:B5) was added to activate the cells at a final concentration of 1 μg/ml, which were maintained for 24 hours in a CO2 incubator. As a result of the activation of RAW 264.7 cells with LPS, NO was formed. The NO release into the media was in a form of nitrite (NO2^−) and quantitatively measured using the Griess reagent. A control group was treated only with vehicle instead of test compounds.\nThe inhibitory effect of the test compounds against NO production were determined as the reduction of NO quantity compared with that of the control group."}},
  "note": "Like-named read-outs stand apart in the source and are kept apart here.",
  "data": [
    {"molecule": "COC(OC)[C@@]1(C)Oc2ccc(N)cc2[C@H](N(Cc2nnn(C)n2)c2ccc(Cl)cc2)[C@H]1O", "note": "[Example 11, (2S,3R,4S)-6-amino-4-[N-(4-chlorophenyl)-N-(2-methyl-2H-tetrazol-5-ylmethyl)amino]-3-hydroxy-2-methyl-2-dimethoxymethyl-3,4-dihydro-2H-1-benzopyran]", "values": [
      {"measurement": "IC50", "setting": "[1]", "value": "> 30000", "unit": "nM"},
      {"measurement": "protective effect on neuron cell: Inhibition (%, 30 μM compound addition)", "setting": "[2]; 30 μM compound, 24 hours, LDH reduction vs control", "value": 93, "unit": "%"},
      {"measurement": "IC50", "setting": "[2]; Cortical neurone, 24 h", "value": "< 2000", "unit": "nM"},
      {"measurement": "IC50", "setting": "[2]; 24 hours", "value": 2000, "unit": "nM"},
      {"measurement": "Infarction volume Medium(%)", "setting": "[3]", "value": "21.5 ± 2.6", "unit": "%"},
      {"measurement": "Infarction volume Medium(%)", "setting": "[3]; listed as compound of formula 11", "value": 21.5, "unit": "%"},
      {"measurement": "Infarction volume Decrease(%)", "setting": "[3]; relative to control group", "value": 46.3, "unit": "%"},
      {"measurement": "inhibition at 30 µM", "setting": "[4]", "value": 27, "unit": "%"}
    ]}
  ]
}
